Measured values as given in paper PMC6332220, “Synthesis, Characterization and Biological Evaluation of Some Quinoxaline Derivatives: A Promising and Potent New Class of Antitumor and Antimicrobial Agents” (Molecules, 2015).
In brackets after ≈: the same amount, converted by molar mass.

What was measured:
Candida albicans = assay: Disk diffusion, Candida albicans; assay type: cell-based; details: Fungi, 8.0 mm disks, 10 μL
Protocol: (§1) The disk diffusion method was used for determination of the antimicrobial activity using ampicillin, gentamicin and amphotericin B as reference drugs. The results were recorded for each compounds as the average diameter as inhibition zones (IZ) of bacterial or fungal growth around the discs in mm as shown in Table 2.
(§2) Antimicrobial activities were carried out against highly pathogenic strains; three strains of Gram positive bacteria (Bacillus subtilis, Staphylococcus aureus and Streptococcus faecalis), four strains of Gram negative bacteria (Escherichia coli, Neisseria gonorrhoeae, Pseudomonas aeruginosa and Salmonella typhimurium) and three fungi strains (Aspergillus flavus, Aspergillus fumigatus and Candida albicans) isolated from primary agar plates. Antimicrobial activity of the tested samples was determined using a modified Kriby-Bauer disk diffusion method. Briefly, 100 µL of the test bacteria/fungi were grown in 10 mL of fresh media until they reached a count approximately 10^8 cells/mL for bacteria or 10^5 cells/mL for fungi. 100 µL of microbial suspension was spread onto agar plates corresponding to the broth in which they were maintained. The inoculated plates of bacterial strains were incubated at 35–37 °C for 24–48 h, while the inoculated plates of fungal strains such as A. flavus and A. fumigatus were incubated at 25 °C for 48 h and yeast as C. albicans was incubated at 30 °C for 24–48 h.
(§3) The agar disk diffusion (qualitative) method was used in this investigation for determination of the preliminary antibacterial and antifungal activities. The agar used was Mueller-Hinton agar plates that are rigorously tested for composition and pH. Further the depth of the agar in the plate is a factor to be considered in the disk diffusion method.
(§4) Reference drugs: ampicillin was used as a standard antibacterial drug for Gram positive bacteria, gentamicin as a standard antibacterial drug for Gram negative bacteria and amphotericin B as antifungal standard drug.
(§5) Bacterial and fungal strains were spread onto the surface of the agar plates using sterile cotton swabs. For evaluation of antibacterial activities, blank paper disks (Schleicher & Schuell, Alicante, Spain) with a diameter of 8.0 mm were saturated with 10 μL of tested concentration of the stock solutions. Disks were dried and then placed onto inoculated agar plates. The plates of bacterial strains were reincubated at 35–37 °C for 24–48 h, while the plates of fungal strains such as A. flavus and A. fumigatus were reincubated at 25 °C for 48 h and yeast as C. albicans was reincubated at 30 °C for 24–48 h as mentioned above. […] For an accurate analysis, tests were run in triplicate for each strain to avoid any error as described in Table 2.
(§6) Disk diffusion method for filamentous fungi testing by using approved standard method (M02-A11) developed by the CLSI for evaluating the susceptibilities of filamentous fungi to antifungal agents. Disk diffusion method for yeasts developed by using approved standard method (M44-A2) by the CLSI [44]. Agar-based methods such as disk diffusion can be good alternatives because they are simpler and faster than broth-based methods.

Aspergillus flavus = assay: Disk diffusion, Aspergillus flavus; assay type: cell-based; details: Fungi, 8.0 mm disks, 10 μL
Protocol: as §1, §2, §3, §4, §5, §6

Aspergillus fumigatus = assay: Disk diffusion, Aspergillus fumigatus; assay type: cell-based; details: Fungi, 8.0 mm disks, 10 μL
Protocol: as §1, §2, §3, §4, §5, §6

Pseudomonas aeruginosa = assay: Disk diffusion, Pseudomonas aeruginosa; assay type: cell-based; details: Gram negative, 8.0 mm disks, 10 μL
Protocol: as §1, §2, §3, §4, §5

Salmonella typhimurium = assay: Disk diffusion, Salmonella typhimurium; assay type: cell-based; details: Gram negative, 8.0 mm disks, 10 μL
Protocol: as §1, §2, §3, §4, §5

Neisseria gonorrhoeae = assay: Disk diffusion, Neisseria gonorrhoeae; assay type: cell-based; details: Gram negative, 8.0 mm disks, 10 μL
Protocol: as §1, §2, §3, §4, §5

Escherichia coli = assay: Disk diffusion, Escherichia coli; assay type: cell-based; details: Gram negative, 8.0 mm disks, 10 μL
Protocol: as §1, §2, §3, §4, §5

SF-268 (CNS cancer) = assay: In vitro cytotoxicity, SRB cell growth assay, SF-268; details: Homo sapiens, SF-268, 48 h, read-out: IC50 (μg/mL) SF-268
Protocol: (§7) The in vitro cytotoxic activity of the newly synthesized compounds against human breast cell line (MCF7), non-small cell lung cancer NCIH460, CNS cancer SF-268 and WI 38 (normal fibroblast cells) were evaluated using doxorubicin as the reference drug according to the method reported by Skehan et al..
(§8) The newly synthesized compounds were evaluated in vitro against three human cancer cell lines; which are MCF-7 (breast adenocarcinoma), NCI-H460 (non-small cell lung cancer) and SF-268 (CNS cancer), and WI 38 (normal fibroblast cells) were used in this study. MCF-7 was obtained from the European Collection of Cell Cultures (ECACC, Salisbury, UK) but NCI-H460, SF-268 and WI 38 were kindly provided by the National Cancer Institute (NCI, Cairo, Egypt). They grow as monolayer and routinely maintained RPMI-1640 medium supplemented with 5% heat inactivated fetal bovine serum (FBS), 2 mM glutamine and antibiotics (penicillin 100 U/mL, streptomycin 100 µg/mL), at 37 °C in a humidified atmosphere containing 5% CO2. Exponentially growing cells were obtained by plating 1.5 × 10^5 cells/mL for MCF-7 and SF-268, and 0.75 × 10^4 cells/mL for NCI-H460 followed by 24 h of incubation. The effect of the vehicle solvent (DMSO) on the growth of these cell lines was evaluated in all experiments by exposing untreated control cells to the maximum concentration (0.5%) of DMSO used in each assay.
(§9) The effect of compounds on the in vitro growth of human tumor cell lines were evaluated according to the procedure adopted by the National Cancer Institute ([…]) in the “In vitro Anticancer Drug Discovery Screen” that uses the protein-binding dye sulforhodamine B (SRB) to assess cell growth. In the assay protocol, all cells were incubated at 37 °C under humidified atmosphere containing 5% CO2. Briefly, exponentially cells growing in 96-well plates were then exposed for 48 h to five serial concentrations of each compound, starting from a maximum concentration of 150 μg/mL. Following this exposure period adherent cells were fixed, washed and stained. The bound stain was solubilized and the absorbance was measured at 492 nm in a plate reader (Bio-Tek Instruments Inc., Power wave XS, Winston, NC, USA). For each test compound and cell line, a dose response curve was obtained and the inhibitory concentration of 50% (IC50), corresponding to the concentration of the compounds that inhibited 50% of the net cell growth was calculated as described elsewhere. Doxorubicin was used as a positive control and tested in the same manner.

Bacillus subtilis = assay: Disk diffusion, Bacillus subtilis; assay type: cell-based; details: Gram positive, 8.0 mm disks, 10 μL
Protocol: as §1, §2, §3, §4, §5

[1] = test system: WI 38 (normal fibroblast cells); assay: In vitro cytotoxicity, SRB cell growth assay, normal cells WI 38; assay type: cell-based, human; details: 48 h exposure, non-cytotoxic = IC50 >100 μg/mL; for IC50: Homo sapiens, WI-38, 48 h
Protocol: as §7, §8, §9

[2] = test system: NCI-H460 (non-small cell lung cancer); assay: In vitro cytotoxicity, SRB cell growth assay, NCI-H460; details: Homo sapiens, NCI-H460, 48 h, read-out: IC50 (μg/mL) NCI-H460
Protocol: as §7, §8, §9

[3] = test system: MCF-7 (breast adenocarcinoma); assay: In vitro cytotoxicity, SRB cell growth assay, MCF-7; details: Homo sapiens, MCF7, 48 h, read-out: IC50 (μg/mL) MCF-7
Protocol: as §7, §8, §9

Staphylococcus aureus = assay: Disk diffusion, Staphylococcus aureus; assay type: cell-based; details: Gram positive, 8.0 mm disks, 10 μL
Protocol: as §1, §2, §3, §4, §5

Streptococcus faecalis = assay: Disk diffusion, Streptococcus faecalis; assay type: cell-based; details: Gram positive, 8.0 mm disks, 10 μL
Protocol: as §1, §2, §3, §4, §5

SMILES | Inhibition Zone Diameter (IZ) (mm) Candida albicans (Candida albicans) | Inhibition Zone Diameter (IZ) (mm) Aspergillus flavus (Aspergillus flavus) | Inhibition Zone Diameter (IZ) (mm) Aspergillus fumigatus (Aspergillus fumigatus) | Inhibition Zone Diameter (IZ) (mm) Pseudomonas aeruginosa (Pseudomonas aeruginosa) | Inhibition Zone Diameter (IZ) (mm) Salmonella typhimurium (Salmonella typhimurium) | Inhibition Zone Diameter (IZ) (mm) Neisseria gonorrhoeae (Neisseria gonorrhoeae) | Inhibition Zone Diameter (IZ) (mm) Escherichia coli (Escherichia coli) | IC50 (SF-268 (CNS cancer)) | Inhibition Zone Diameter (IZ) (mm) Bacillus subtilis (Bacillus subtilis) | IC50 [1] | melting point | IC50 [2] | IC50 [3] | Inhibition Zone Diameter (IZ) (mm) Staphylococcus aureus (Staphylococcus aureus) | Inhibition Zone Diameter (IZ) (mm) Streptococcus faecalis (Streptococcus faecalis) | IC50 (μg/mL) WI 38 [1]
C[C@@H]1[C@H](O)[C@@H](C)/C=C/C=C/C=C/C=C/C=C/C=C/C=C/[C@H](O[C@@H]2O[C@H](C)[C@@H](O)[C@H](N)[C@@H]2O)C[C@@H]2O[C@](O)(C[C@@H](O)C[C@@H](O)[C@H](O)CC[C@@H](O)C[C@@H](O)CC(=O)O[C@H]1C)C[C@H](O)[C@H]2C(=O)O [Amphotericin B, reference compound] | 19 mm | 17 mm | 23 mm |  |  |  |  |  |  |  |  |  |  |  |  | 
CNC(C)C1CCC(N)C(OC2C(N)CC(N)C(OC3OCC(C)(O)C(NC)C3O)C2O)O1 (stereo not drawn) [Gentamicin, reference compound] |  |  |  | 17 mm | 23 mm | 18 mm | 20 mm |  |  |  |  |  |  |  |  | 
CC1=NN(c2nc3ccc(Br)cc3nc2N2N=C(C)CC2=O)C(=O)C1 [Compound 17, 6-Bromo-2,3-bis(3-methyl-1H-pyrazol-5(4H)-one)quinoxaline] | R (R (IZ = 0 mm)) | R (R (IZ = 0 mm)) | R (R (IZ = 0 mm)) | 8 mm | 5 mm | 6 mm | 11 mm | 21.3 ± 2.12 µg/mL (≈ 53.2 µM) | 7 mm | 21.4 ± 2.02 µg/mL (≈ 53.3 µM) | 152 to 154 °C | 15.81 ± 0.1 µg/mL (≈ 39.4 µM) | 21.23 ± 0.14 µg/mL (≈ 52.9 µM) | 8 mm | 10 mm | 
Cc1cc(C)n(-c2nc3ccc(Br)cc3nc2-n2nc(C)cc2C)n1 [Compound 15, 6-Bromo-2,3-bis(3,5-dimethyl-1H-pyrazol-1-yl)quinoxaline] | R (R (IZ = 0 mm)) | R (R (IZ = 0 mm)) | R (R (IZ = 0 mm)) | 9 mm | 10 mm | 9 mm | 10 mm | 30.2 ± 2.04 µg/mL (≈ 76.1 µM) | 10 mm | 18.2 ± 4.03 µg/mL (≈ 45.7 µM) |  | 22.7 ± 8.12 µg/mL (≈ 57.2 µM) | 28.4 ± 5.8 µg/mL (≈ 71.5 µM) | 9 mm | 9 mm | 
NNc1nc2cc(Br)ccc2n2nnnc12 [Compound 7, 7-Bromo-4-hydrazinyltetrazolo[1,5-a]quinoxaline] | R (R (IZ = 0 mm)) | R (R (IZ = 0 mm)) | R (R (IZ = 0 mm)) | 10 mm | 9 mm | 10 mm | 10 mm | 10.6 ± 2.83 µg/mL (≈ 38 µM) | 11 mm |  | 237 to 239 °C | 12.4 ± 3.01 µg/mL (≈ 44.3 µM) | 26.4 ± 2.1 µg/mL (≈ 94.3 µM) | 10 mm | 11 mm | non-cytotoxic
Cc1c[nH]nc2c3n[nH]cc(C)n-3c3cc(Br)ccc3n1-2 [Compound 12, 7-Bromo-4,11-dimethyl-2,13-dihydrobis[1,2,4]triazino[4,3-a:3',4'-c]quinoxaline] | R (R (IZ = 0 mm)) | R (R (IZ = 0 mm)) | R (R (IZ = 0 mm)) | 20 mm | 18 mm | R (R (IZ = 0 mm)) | 17 mm | 22.1 ± 2.81 µg/mL (≈ 64 µM) | 18 mm | 23 ± 8.2 µg/mL (≈ 66.5 µM) |  | 34 ± 6.05 µg/mL (≈ 98.6 µM) | 35.2 ± 4.18 µg/mL (≈ 102 µM) | 19 mm | 18 mm | 
CC1(C)S[C@@H]2[C@H](NC(=O)[C@H](N)c3ccccc3)C(=O)N2[C@H]1C(=O)O [Ampicillin, reference compound] |  |  |  |  |  |  |  |  | 20 mm |  |  |  |  | 22 mm | 19 mm | 
COc1cccc2c1C(=O)c1c(O)c3c(c(O)c1C2=O)C[C@@](O)(C(=O)CO)C[C@@H]3O[C@H]1C[C@H](N)[C@H](O)[C@H](C)O1 [Doxorubicin, reference compound] |  |  |  |  |  |  |  | 0.09 ± 0.007 µg/mL (≈ 0.166 µM) |  |  |  | 0.09 ± 0.008 µg/mL (≈ 0.166 µM) | 0.04 ± 0.008 µg/mL (≈ 0.0736 µM) |  |  | non-cytotoxic
